Reference: ChEMBL document CHEMBL5143526, “Acridine-O6-benzylguanine hybrids: Synthesis, DNA binding, MGMT inhibition and antiproliferative activity” (Eur J Med Chem, 2022)
The source made the active and inactive calls. The rule behind the calls is not given here.

Assays:
Calf thymus DNA [1] = assay: Binding affinity to calf thymus DNA assessed as intercalation by measuring dissociation constant at 20 uM measured after 5 mins by UV-Vis spectrophotometric titration analysis; type: nucleic-acid assay, Bos taurus
Calf thymus DNA [2] = assay: Binding affinity to calf thymus DNA assessed as ligand-induced thermal stabilization of DNA duplex by measuring change in melting temperature at 6.25 uM by thermal denaturation analysis; type: nucleic-acid assay; details: Bos taurus
T98G [3] = assay: Antiproliferative activity against human T98G cells assessed as cell growth inhibition incubated for 96 hrs by CellTiter-Glo luminescent cell viability assay; type: functional
T98G [4] = assay: Additive antiproliferative activity against human T98G cells assessed as reduction in cell viability at 25 uM pretreated for 2 hrs followed by TMZ addition at 94 uM and measured after 94 hrs by CellTiter-Glo luminescent cell viability assay; type: functional, cell-based; details: time 96.0 hrs
T98G [5] = assay: Antagonistic antiproliferative activity against human T98G cells assessed as reduction in cell viability at GI50 pretreated for 2 hrs followed by TMZ addition at 188 uM and measured after 94 hrs by CellTiter-Glo luminescent cell viability assay; type: functional, cell-based; details: time 96.0 hrs
T98G [6] = assay: Antagonistic antiproliferative activity against human T98G cells assessed as reduction in cell viability at GI50 pretreated for 2 hrs followed by TMZ addition at 375 uM and measured after 94 hrs by CellTiter-Glo luminescent cell viability assay; type: functional, cell-based; details: time 96.0 hrs
[7] = Thermal stability of compound in aqueous solution at 10 uM at 20 to 75 degreeC by UV-vis absorption spectroscopy; type: physicochemical; details: buffer
[8] = Fluorescence property of compound in MeCN assessed as quantum yield; type: physicochemical
[9] = Fluorescence property of compound in THF assessed as quantum yield; type: physicochemical
[10] = Fluorescence property of compound in MeOH assessed as quantum yield; type: physicochemical
[11] = Fluorescence property of compound in aqueous solution assessed as quantum yield; type: physicochemical; details: buffer
T98G [12] = assay: Antiproliferative activity against human T98G cells assessed as cell viability at 94 uM incubated for 96 hrs by CellTiter-Glo luminescent cell viability assay relative to control; type: functional; details: read-out: Activity
T98G [13] = assay: Antiproliferative activity against human T98G cells assessed as cell viability at 188 uM incubated for 96 hrs by CellTiter-Glo luminescent cell viability assay relative to control; type: functional; details: read-out: Activity
T98G [14] = assay: Antiproliferative activity against human T98G cells assessed as cell viability at 375 uM incubated for 96 hrs by CellTiter-Glo luminescent cell viability assay relative to control; type: functional; details: read-out: Activity
[15] = Drug localization in cytosolic region of human T98G cells at 1.1 uM measured after 96 hrs by confocal microscope based live cell imaging analysis; type: ADME, subcellular; details: cytosol
[16] = Drug localization in perinuclear region of nuclear membrane of human T98G cells assessed as appearance of z-stacked series at 1.1 uM measured after 96 hrs by confocal microscope based live cell imaging analysis; type: ADME, cell membranes
T98G [17] = assay: Induction of apoptosis in human T98G cells assessed as increase in early apoptotic cells at 1.1 uM measured after 96 hrs by Annexin V-FITC/PI staining based flow cytometry analysis relative to control; type: functional
T98G [18] = assay: Induction of apoptosis in human T98G cells assessed as increase in early apoptotic cells at 1.1 uM pretreated for 2 hrs followed by TMZ addition and measured after 96 hrs by Annexin V-FITC/PI staining based flow cytometry analysis relative to control; type: functional; details: time 98 hrs
T98G [19] = assay: Synergistic antiproliferative activity against human T98G cells assessed as reduction in cell viability at GI50 pretreated for 2 hrs followed by TMZ addition at 94 uM and measured after 94 hrs by CellTiter-Glo luminescent cell viability assay; type: functional, cell-based; details: time 96.0 hrs
T98G [20] = assay: Additive antiproliferative activity against human T98G cells assessed as reduction in cell viability at GI50 pretreated for 2 hrs followed by TMZ addition at 188 uM and measured after 94 hrs by CellTiter-Glo luminescent cell viability assay; type: functional, cell-based
T98G [21] = assay: Synergistic antiproliferative activity against human T98G cells assessed as reduction in cell viability at GI50 pretreated for 2 hrs followed by TMZ addition at 375 uM and measured after 94 hrs by CellTiter-Glo luminescent cell viability assay; type: functional, cell-based; details: time 96.0 hrs
T98G [22] = assay: Additive antiproliferative activity against human T98G cells assessed as reduction in cell viability at GI50 pretreated for 2 hrs followed by TMZ addition at 375 uM and measured after 94 hrs by CellTiter-Glo luminescent cell viability assay; type: functional, cell-based; details: time 96.0 hrs
T98G [23] = assay: Synergistic antiproliferative activity against human T98G cells assessed as reduction in cell viability at 25 uM pretreated for 2 hrs followed by TMZ addition at 94 uM and measured after 94 hrs by CellTiter-Glo luminescent cell viability assay; type: functional, cell-based; details: time 96.0 hrs
T98G [24] = assay: Additive antiproliferative activity against human T98G cells assessed as reduction in cell viability at 25 uM pretreated for 2 hrs followed by TMZ addition at 188 uM and measured after 94 hrs by CellTiter-Glo luminescent cell viability assay; type: functional, cell-based; details: time 96.0 hrs
T98G [25] = assay: Additive antiproliferative activity against human T98G cells assessed as reduction in cell viability at 25 uM pretreated for 2 hrs followed by TMZ addition at 375 uM and measured after 94 hrs by CellTiter-Glo luminescent cell viability assay; type: functional, cell-based; details: time 96.0 hrs
T98G [26] = assay: Antagonistic antiproliferative activity against human T98G cells assessed as reduction in cell viability at GI50 pretreated for 2 hrs followed by TMZ addition at 94 uM and measured after 94 hrs by CellTiter-Glo luminescent cell viability assay; type: functional, cell-based; details: time 96.0 hrs
Calf thymus DNA [27] = assay: Displacement of ethidium bromide from calf thymus DNA incubated for 30 mins by fluorescence microplate reader assay; type: nucleic-acid assay, Bos taurus
Calf thymus DNA [28] = assay: Binding affinity to calf thymus DNA assessed as ligand induced positive CD band at 50 uM by Circular dichroism spectroscopy analysis; type: nucleic-acid assay; details: Bos taurus
[29] = tested on: Panel NCI-60 (60 carcinoma cell lines); assay: Antiproliferative activity against human Panel NCI-60 (60 carcinoma cell lines) assessed as cell growth inhibition incubated for 48 hrs; type: functional
T98G [30] = assay: Antiproliferative activity against human T98G cells assessed as cell viability at 25 uM incubated for 96 hrs by CellTiter-Glo luminescent cell viability assay relative to control; type: functional; details: read-out: Activity
T98G [31] = assay: Antagonistic antiproliferative activity against human T98G cells assessed as reduction in cell viability at 25 uM pretreated for 2 hrs followed by TMZ addition at 375 uM and measured after 94 hrs by CellTiter-Glo luminescent cell viability assay; type: functional, cell-based; details: time 96.0 hrs
HT-29 = assay: Growth inhibition of human HT-29 cells measured after 24 hrs; type: functional
T98G [32] = assay: Induction of DNA damage in human T98G cells assessed as increase in gammaH2AX foci number and size at 92 uM pretreated for 2 hrs followed by TMZ addition and measured after 94 hrs by DAPI staining based immunofluorescence assay; type: functional, cell-based; details: time 96.0 hrs
T98G [33] = assay: Induction of apoptosis in human T98G cells assessed as increase in early apoptotic cells at 92 uM pretreated for 2 hrs followed by TMZ addition and measured after 96 hrs by Annexin V-FITC/PI staining based flow cytometry analysis (reference value: 2 %); type: functional; details: time 98 hrs

| Compound | Kd (Calf thymus DNA [1]) | ΔTm (Calf thymus DNA [2]) | GI50 (T98G [3]) | Stability [7] | Activity [8] | Activity [9] | Activity [10] | Activity [11] | Activity (T98G [20]) | also measured |
| --- | --- | --- | --- | --- | --- | --- | --- | --- | --- | --- |
| COc1ccc2nc3cc(Cl)ccc3c(NCCOCCOCC(=O)NCc3cccc(COc4nc(N)nc5[nH]cnc45)c3)c2c1 | 23.4 µM | -0.7 °C | 25 µM | Stable | 0.05 | 0.06 | 0.06 | 0.01 |  | Activity (T98G [4]): Active; Activity (T98G [5]): Active; Activity (T98G [6]): Active |
| Cn1nnc2c(C(N)=O)ncn2c1=O [TEMOZOLOMIDE] |  |  | 375 µM |  |  |  |  |  |  | viability at 94 µM (T98G [12]): 100%; viability at 188 µM (T98G [13]): 63%; viability at 375 µM (T98G [14]): 50% |
| COc1ccc2nc3cc(Cl)ccc3c(NCCCCn3cnc4c(OCc5ccccc5)nc(N)nc43)c2c1 | 19.1 µM | 0.6 °C | 1.1 µM | Stable | 0.07 | 0.09 | 0.06 | 0.01 | Active | Drug uptake [15]: Active; Drug uptake [16]: Active; Activity (T98G [17]): 10%; Activity (T98G [18]): 11%; Activity (T98G [19]): Active; Activity (T98G [21]): Active |
| COc1ccc2nc3cc(Cl)ccc3c(NCCOCCOCCn3cnc4c(OCc5ccccc5)nc(N)nc43)c2c1 | 13.4 µM | -1.4 °C | 2.1 µM | Stable | 0.09 | 0.09 | 0.06 | < 0.01 | Active | Activity (T98G [19]): Active; Activity (T98G [21]): Active |
| COc1ccc2nc3cc(Cl)ccc3c(NCCC(=O)NCc3cccc(COc4nc(N)nc5[nH]cnc45)c3)c2c1 | 16.2 µM | 1.5 °C | 15.6 µM | Stable | 0.06 | 0.12 | 0.07 | 0.08 |  | Activity (T98G [4]): Active; Activity (T98G [5]): Active; Activity (T98G [22]): Active |
| COc1ccc2nc3cc(Cl)ccc3c(NCCCCCCCC(=O)NCc3cccc(COc4nc(N)nc5[nH]cnc45)c3)c2c1 | 14.3 µM | 0.2 °C | 19.4 µM | Stable | 0.04 | 0.06 | 0.06 | 0.01 | Active | Activity (T98G [4]): Active; Activity (T98G [6]): Active |
| NCc1cccc(COc2nc(N)nc3nc[nH]c23)c1 |  |  | > 25 µM |  |  |  |  |  |  | Activity (T98G [23]): Active; Activity (T98G [24]): Active; Activity (T98G [25]): Active |
| COc1ccc2nc3cc(Cl)ccc3c(NCCCCCCCCn3cnc4c(OCc5ccccc5)nc(N)nc43)c2c1 |  | 0.7 °C | 14.5 µM | Stable | 0.09 | 0.08 | 0.05 | 0.05 |  | Activity (T98G [26]): Active; Activity (T98G [5]): Active; Activity (T98G [6]): Active |
| COc1ccc2nc3cc(Cl)ccc3c(N)c2c1 | 16.1 µM | 8.5 °C | 0.6 µM |  | 0.22 | 0.22 | 0.42 | 0.36 | Active | EC50 (Calf thymus DNA [27]): 8 µM; Activity (Calf thymus DNA [28]): Active; GI50 [29]: 1 µM; Activity (T98G [19]): Active |
| COc1ccc2nc3cc(Cl)ccc3c(NCCCCn3cnc4c(=O)[nH]c(N)nc43)c2c1 |  |  | > 25 µM |  |  |  |  |  | Active | Activity (T98G [22]): Active |
| NCCCCn1cnc2c(OCc3ccccc3)nc(N)nc21 |  |  | > 25 µM |  |  |  |  |  |  | viability at 25 µM (T98G [30]): ≥ 70%; Activity (T98G [23]): Active; Activity (T98G [24]): Active; Activity (T98G [25]): Active |
| COc1ccc2nc3cc(Cl)ccc3c(NCCCCn3cnc4c(Oc5ccccc5)nc(N)nc43)c2c1 |  |  | 0.8 µM |  |  |  |  |  | Active | Activity (T98G [4]): Active; Activity (T98G [22]): Active |
| Nc1nc(OCc2ccccc2)c2ncn(CCCCN3C(=O)c4ccccc4C3=O)c2n1 |  |  | > 25 µM |  |  |  |  |  |  | viability at 25 µM (T98G [30]): ≥ 70%; Activity (T98G [23]): Active; Activity (T98G [24]): Active; Activity (T98G [31]): Active |
| Nc1nc(OCc2ccccc2)c2nc[nH]c2n1 [6-O-BENZYLGUANINE] |  |  | 91.8 µM |  |  |  |  |  |  | GI50 (HT-29): > 100 µM; Activity (T98G [32]): Active; Activity (T98G [33]): 8%; Activity (T98G [23]): Active; Activity (T98G [24]): Active; Activity (T98G [25]): Active |
